Assay results from US9655887B2, “Pharmaceutical composition and the use thereof, and application regime of said pharmaceutical composition for on-demand contraception” (BAYER PHARMA AKTIENGESELLSCHAFT, priority 2013, dated 2017).

These compounds were tested against EP2 subtype of the human PGE2 receptor (hEP2 receptor) (Homo sapiens, UniProt P43116) (assay: cAMP antagonism test, human prostaglandin E2 (subtype EP2) receptor signal).
Assay type: cell-based
Method in brief: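 Cells (625000 cells/ml, mixed with cAMP-d2) were preincubated 20 min at RT with compound ([…]). They were then stimulated 60 min at RT with a 3× PGE2 solution (1.5 nM) in PBS-IBMX and lysed for 20 min. cAMP was read by HTRF as the 665/620 nm ratio ×10000, with antagonism seen as a rise in FRET signal.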

Chain of EP2 subtype of the human PGE2 receptor (hEP2 receptor) (P43116 whole entry): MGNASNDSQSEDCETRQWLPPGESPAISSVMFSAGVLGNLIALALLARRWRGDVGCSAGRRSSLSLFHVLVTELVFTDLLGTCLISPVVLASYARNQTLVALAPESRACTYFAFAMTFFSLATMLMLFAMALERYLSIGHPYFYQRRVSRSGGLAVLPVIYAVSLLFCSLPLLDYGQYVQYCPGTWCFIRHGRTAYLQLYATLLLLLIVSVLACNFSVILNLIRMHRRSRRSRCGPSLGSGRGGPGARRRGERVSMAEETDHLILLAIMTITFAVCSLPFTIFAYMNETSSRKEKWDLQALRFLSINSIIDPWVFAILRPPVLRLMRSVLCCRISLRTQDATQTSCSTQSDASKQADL

IC50, > 50 nM:
COCCNC(=O)c1ccc2nn(CC3CCN(C(=O)c4ccc(-c5ccc(OC)cc5)cc4F)CC3)cc2c1C [Example E41, 2-({1-[(3-fluoro-4′-methoxybiphenyl-4-yl)carbonyl]piperidin-4-yl}methyl)-N-(2-methoxyethyl)-4-methyl-2H-indazole-5-carboxamide]
COCCNC(=O)c1ccc2nn(CC3CCN(C(=O)c4ccc(Oc5ccc(C)cc5)cc4)CC3)cc2c1C [Example E14, N-(2-methoxyethyl)-4-methyl-2-({1-[4-(4-methylphenoxy)benzoyl]piperidin-4-yl}-methyl)-2H-indazole-5-carboxamide]
COCCNC(=O)c1ccc2nn(CC3CCN(C(=O)c4ccc(-c5cccc(OC)n5)cc4)CC3)cc2c1C [Example E191, N-(2-methoxyethyl)-2-({1-[4-(6-methoxypyridin-2-yl)benzoyl]piperidin-4-yl}methyl)-4-methyl-2H-indazole-5-carboxamide]
COCCNC(=O)c1ccc2nn(CC3CCN(C(=O)c4ccc(OC(C)(C)C)cc4)CC3)cc2c1C [Example E2, 2-{[1-(4-tert-butoxybenzoyl)piperidin-4-yl]methyl}-N-(2-methoxyethyl)-4-methyl-2H-indazole-5-carboxamide]
COCCNC(=O)c1ccc2nn(CC3CCN(C(=O)c4ccc(Cl)cc4)CC3)cc2c1C [Example E54, 2-{[1-(4-chlorobenzoyl)piperidin-4-yl]methyl}-N-(2-methoxyethyl)-4-methyl-2H-indazole-5-carboxamide]
Cc1c(C(=O)NCC(F)(F)F)ccc2nn(CC3CCN(C(=O)c4ccc(SC(F)(F)F)cc4)CC3)cc12 [Example E125, 4-methyl-N-(2,2,2-trifluoroethyl)-2-[(1-{4-[(trifluoromethyl)sulphanyl]benzoyl}-piperidin-4-yl)methyl]-2H-indazole-5-carboxamide]
Cc1c(C(=O)NCCOCC2CC2)ccc2nn(CC3CCN(C(=O)c4ccc(C(F)(F)F)cc4)CC3)cc12 [Example E62, N-[2-(cyclopropylmethoxy)ethyl]-4-methyl-2-({1-[4-(trifluoromethyl)benzoyl]piperidin-4-yl}methyl)-2H-indazole-5-carboxamide]
[2H]C([2H])([2H])OC([2H])([2H])C([2H])([2H])NC(=O)c1ccc2nn(CC3CCN(C(=O)c4ccc(Oc5ccc(F)cc5)cc4)CC3)cc2c1C [Example E86, 2-({1-[4-(4-fluorophenoxy)benzoyl]piperidin-4-yl}methyl)-4-methyl-N-{2-[(^2H3)methyloxy](^2H4)ethyl}-2H-indazole-5-carboxamide]
COCCNC(=O)c1ccc2nn(CC3CN(C(=O)c4ccc(Cl)cc4)C3)cc2c1C [Example E87, 2-{[1-(4-chlorobenzoyl)azetidin-3-yl]methyl}-N-(2-methoxyethyl)-4-methyl-2H-indazole-5-carboxamide]
Cc1c(C(=O)NCCOC(C)C)ccc2nn(CC3CCN(C(=O)c4ccc(Cl)cc4)CC3)cc12 [Example E71, 2-{[1-(4-chlorobenzoyl)piperidin-4-yl]methyl}-N-(2-isopropoxyethyl)-4-methyl-2H-indazole-5-carboxamide]
COCCNC(=O)c1ccc2nn(CC3CCN(C(=O)c4ccc(N5CCCC5)cc4F)CC3)cc2c1C [Example E39, 2-({1-[2-fluoro-4-(pyrrolidin-1-yl)benzoyl]piperidin-4-yl}methyl)-N-(2-methoxyethyl)-4-methyl-2H-indazole-5-carboxamide]
COCCNC(=O)c1ccc2nn(CC3CCN(C(=O)c4cccc(Cl)c4)CC3)cc2c1C [Example E27, 2-{[1-(3-chlorobenzoyl)piperidin-4-yl]methyl}-N-(2-methoxyethyl)-4-methyl-2H-indazole-5-carboxamide]
COCCNC(=O)c1ccc2nn(CC3CCN(C(=O)c4ccc(-c5ccccc5OC(F)(F)F)cc4F)CC3)cc2c1C [Example E44, 2-[(1-{[3-fluoro-2′-(trifluoromethoxy)biphenyl-4-yl]carbonyl}piperidin-4-yl)methyl]-N-(2-methoxyethyl)-4-methyl-2H-indazole-5-carboxamide]
COCCNC(=O)c1ccc2nn(CC3CCN(C(=O)c4ccc(C5CC5)cc4)CC3)cc2c1C [Example E19, 2-{[1-(4-cyclopropylbenzoyl)piperidin-4-yl]methyl}-N-(2-methoxyethyl)-4-methyl-2H-indazole-5-carboxamide]
COCCNC(=O)c1ccc2nn(CC3CCN(C(=O)c4ccc(-c5ccc(F)cc5F)cc4)CC3)cc2c1C [Example E46, 2-({1-[(2′,4′-difluorobiphenyl-4-yl)carbonyl]piperidin-4-yl}methyl)-N-(2-methoxy-ethyl)-4-methyl-2H-indazole-5-carboxamide]
COCCNC(=O)c1ccc2nn(CC3CCN(C(=O)c4ccc(-c5ccc(Cl)cn5)cc4)CC3)cc2c1C [Example E181, 2-({1-[4-(5-chloropyridin-2-yl)benzoyl]piperidin-4-yl}methyl)-N-(2-methoxyethyl)-4-methyl-2H-indazole-5-carboxamide]
COCCNC(=O)c1ccc2nn(CC3CN(C(=O)c4ccc(Cl)cc4F)C3)cc2c1C [Example E91, 2-{[1-(4-chloro-2-fluorobenzoyl)azetidin-3-yl]methyl}-N-(2-methoxyethyl)-4-methyl-2H-indazole-5-carboxamide]
COCCNC(=O)c1ccc2nn(CC3CCN(C(=O)c4ccc(OC(C)C)cc4F)CC3)cc2c1C [Example E175, 2-{[1-(2-fluoro-4-isopropoxybenzoyl)piperidin-4-yl]methyl}-N-(2-methoxyethyl)-4-methyl-2H-indazole-5-carboxamide]
COCCNC(=O)c1ccc2nn(CC3CN(C(=O)c4ccc(OC(F)(F)F)cc4)C3)cc2c1C [Example E89, N-(2-methoxyethyl)-4-methyl-2-({1-[4-(trifluoromethoxy)benzoyl]azetidin-3-yl}-methyl)-2H-indazole-5-carboxamide]
COCCNC(=O)c1ccc2nn(CC3CN(C(=O)c4ccc(Oc5ccc(C(F)(F)F)cn5)cc4)C3)cc2c1C [Example E117, N-(2-methoxyethyl)-4-methyl-2-{[1-(4-{[5-(trifluoromethyl)pyridin-2-yl]oxy}benzoyl)-azetidin-3-yl]methyl}-2H-indazole-5-carboxamide]
Cc1c(C(=O)NCCOCC(F)(F)F)ccc2nn(CC3CN(C(=O)c4ccc(Cl)cc4)C3)cc12 [Example E112, 2-{[1-(4-chlorobenzoyl)azetidin-3-yl]methyl}-4-methyl-N-[2-(2,2,2-trifluoroethoxy)-ethyl]-2H-indazole-5-carboxamide]
COCCNC(=O)c1ccc2nn(CC3CCN(C(=O)c4ccc(C5CCCCC5)cc4)CC3)cc2c1C [Example E157, 2-{[1-(4-cyclohexylbenzoyl)piperidin-4-yl]methyl}-N-(2-methoxyethyl)-4-methyl-2H-indazole-5-carboxamide]
COCCNC(=O)c1ccc2nn(CC3CCN(C(=O)c4ccc(Oc5ccc(C(F)(F)F)nc5)cc4)CC3)cc2c1C [Example E164, N-(2-methoxyethyl)-4-methyl-2-{[1-(4-{[6-(trifluoromethyl)pyridin-3-yl]oxy}benzoyl)-piperidin-4-yl]methyl}-2H-indazole-5-carboxamide]
COCCNC(=O)c1ccc2nn(CC3CCN(C(=O)c4ccc(-c5cnc(C(F)(F)F)nc5)cc4)CC3)cc2c1C [Example E195, N-(2-methoxyethyl)-4-methyl-2-[(1-{4-[2-(trifluoromethyl)pyrimidin-5-yl]benzoyl}-piperidin-4-yl)methyl]-2H-indazole-5-carboxamide]
COCCNC(=O)c1ccc2nn(CC3CCN(C(=O)c4ccc(Oc5ccc(F)cc5)cc4)CC3)cc2c1C [Example E3, 2-({1-[4-(4-fluorophenoxy)benzoyl]piperidin-4-yl}methyl)-N-(2-methoxyethyl)-4-methyl-2H-indazole-5-carboxamide]
COCCNC(=O)c1ccc2nn(CC3CN(C(=O)c4ccc(SC(F)(F)F)cc4)C3)cc2c1C [Example E88, N-(2-methoxyethyl)-4-methyl-2-[(1-{4-[(trifluoromethyl)sulphanyl]benzoyl}azetidin-3-yl)methyl]-2H-indazole-5-carboxamide]
COCCNC(=O)c1ccc2nn(CC3CCN(C(=O)c4ccc(Oc5ccc(C#N)cc5)cc4)CC3)cc2c1C [Example E153, 2-({1-[4-(4-cyanophenoxy)benzoyl]piperidin-4-yl}methyl)-N-(2-methoxyethyl)-4-methyl-2H-indazole-5-carboxamide]
Cc1ccc(C(=O)N2CCC(Cn3cc4c(C)c(C(=O)NCCOCC(F)(F)F)ccc4n3)CC2)cc1 [Example E66, 4-methyl-2-{[1-(4-methylbenzoyl)piperidin-4-yl]methyl}-N-[2-(2,2,2-trifluoroethoxy)-ethyl]-2H-indazole-5-carboxamide]
Cc1c(C(=O)NCCOC(C)C)ccc2nn(CC3CCN(C(=O)c4ccc(Oc5ccc(F)cc5)cc4)CC3)cc12 [Example E73, 2-({1-[4-(4-fluorophenoxy)benzoyl]piperidin-4-yl}methyl)-N-(2-isopropoxyethyl)-4-methyl-2H-indazole-5-carboxamide]
COCCNC(=O)c1ccc2nn(CC3CCN(C(=O)c4cccc(C)c4)CC3)cc2c1C [Example E26, N-(2-methoxyethyl)-4-methyl-2-{[1-(3-methylbenzoyl)piperidin-4-yl]methyl}-2H-indazole-5-carboxamide]
